Test results published in patent US20250000834A1, “COMPOSITIONS AND METHODS FOR TARGETING GPCR FOR THE PREVENTION AND TREATMENT OF PAIN” (Duke University, priority 2021, published 2025).
Non-standard residues stand in square brackets, D forms with d. Residues, ends and D or L forms follow the SMILES beside them.

Columns and labels:
[1] = target: T1, hGPR37L1 (Homo sapiens, UniProt O60883); assay: Lipid-coated bead pull-down assay with hGPR37L1-expressing cells; format: binding; parameters: expressed in transfected cells; host or cells: HEK293 Flp-In cells; conditions: Western blot
T1 sequence (O60883 26-481): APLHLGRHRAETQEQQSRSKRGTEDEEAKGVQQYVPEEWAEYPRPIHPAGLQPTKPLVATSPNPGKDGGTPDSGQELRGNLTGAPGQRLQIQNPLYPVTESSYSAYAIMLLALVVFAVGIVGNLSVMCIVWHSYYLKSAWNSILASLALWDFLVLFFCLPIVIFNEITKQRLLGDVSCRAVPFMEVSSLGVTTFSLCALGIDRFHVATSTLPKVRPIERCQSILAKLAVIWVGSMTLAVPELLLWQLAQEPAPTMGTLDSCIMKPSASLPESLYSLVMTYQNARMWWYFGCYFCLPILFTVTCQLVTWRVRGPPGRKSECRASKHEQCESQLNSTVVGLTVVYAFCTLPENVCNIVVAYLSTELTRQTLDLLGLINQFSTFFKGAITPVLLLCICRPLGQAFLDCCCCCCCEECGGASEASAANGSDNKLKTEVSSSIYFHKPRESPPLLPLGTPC
Protocol: Lipid pull-down assay: Isolated membrane proteins were pre-adsorbed to uncoated control agarose beads (Vector Laboratories, Burlingame, CA); the unbound fraction was collected and incubated 24 hrs at 4° C. with lipid-coated agarose beads (S. Bang et al., GPR37 regulates macrophage phagocytosis and resolution of inflammatory pain. J Clin Invest 128, 3568-3582 (2018)). After extensive washing, bound proteins were eluted from the lipid-coated beads, suspended in Laemmli buffer containing 2% SDS (w/v) and 0.3-M β-mercaptoethanol (Sigma-Aldrich, St. Louis, MO), and heated 5 min at 95° C. to dissolve proteins before separation on 4-20% polyacrylamide/SDS gels as outlined above. The lysate proteins were detected by western blot.
Western blot: GPR37L1 proteins were isolated from transfected cells, lipid pull-down beads, and mouse DRG. The cells were placed on ice, washed with ice-cold phosphate-buffered saline (PBS), and harvested with ice-cold RIPA buffer (Sigma-Aldrich, St. Louis, MO) with Protease Inhibitor Cocktail Tablet (pH 7.4) (Roche Diagnostics, Indianapolis, IN). The cell lysates were centrifugated for removing insoluble debris and were calculated by BCA assay for detection of protein level, and the supernatant was mixed with 4× Laemmli buffer (Bio-Rad, Hercules, CA) and boiling. Protein samples were […] on 4-15% gradient SDS-PAGE gel (Bio-Rad, Hercules, CA) and blotted on PVDF membrane (Bio-Rad, Hercules, CA). Ponceau S staining was used for the detection of total proteins. The primary antibody was incubated with PBS+1% BSA at 4° C. overnight. We used the following primary antibodies: anti-GPR37L1 antibody (Bioss (Woburn, MA), Rabbit, 1:1000, #bs-15390R); anti-GAPDH antibody (Proteintech (Rosemont, IL), mouse, 1:2000, #60004); and anti-flag antibody (Cell Signaling Technologies (Danvers, MA), Rabbit, 1:1000, #14793). Blots were further incubated with an […] secondary anti-rabbit antibody (Jackson ImmunoResearch Laboratories (West Grove, PA), donkey, 1:5000), developed in ECL solution (Pierce Biotechnology, Appleton, WI)), and visualized in ChemiDoc XRS (Bio-Rad, Hercules, CA). Protein signal intensity was quantified by Image J software (NIH).
Next, a lipid-coated bead pull-down assay with hGPR37L1-expressing cells was used to confirm whether MaR1 would interact with GPR37L1 protein selectively. […] The right molecule size of GPR37L1 (˜50 kDa) was also validated by the anti-FLAG antibody (data not shown; see U.S. Prov. No. 63/270,198, FIG. 3E).

[2] = target: T1, hGPR37L1; assay: Beta-arrestin assay (PathHunter hGPR37L1 CHO-K1); format: cell-based; conditions: hGPR37L1 ChoK1 cells, n=6; for β-arrestin signaling: 0.1 nM to 100 nM; for EC50: read-out: EC50 of β-arrestin response
Protocol: Beta-arrestin assay: To screen for GPR37L1 ligands, the PathHunter® eXpress GPR37L1 CHO-K1 kit was purchased from Eurofins Discoveryone™ (DiscoverX Solutions for Drug Discovery, Fremont, CA; Cat #93-0378E2ACP1M). CHO-K1 cells express human GPR37L1 and were grown in 96-well plates for 48 hours. Lipid compounds were incubated with the ChoK1 cells for 1 hour at 37° C., and GPR37L1 activation was determined by measuring chemiluminescence using the beta-arrestin 2 (β-arrestin) detection kit (DiscoverX Solutions for Drug Discovery, Fremont, CA). The luminescent activity was measured using an Infinite F200 Pro Illuminometer (Tecan Trading AG, Switzerland).
Eight different concentrations of compounds ranging from 0.1 nM to 100 nM were tested.

[3] = tested on: Kir4.1 potassium channels in SGCs; assay: Patch-clamp recordings of K+ currents in SGCs of whole-mount DRG; format: cell-based, mouse
Protocol: Patch-clamp recordings in SGCs of whole-mount DRG: Under urethane anesthesia, mice were rapidly euthanized, followed by careful isolation of lumbar DRGs placed in the oxygenated artificial cerebral spinal fluid (aCSF). DRGs were briefly digested (20 min) using an enzymatic mixture consisting of collagenase A (1 mg/mL) and 0.32 mL Trypsin (0.25% original solution). Intact DRG were then incubated in aCSF oxygenated with 95% O2 and 5% CO2 at 34° C. Following incubation, DRG were transferred to a recording chamber. Isolated DRGs were transferred to a recording chamber continuously perfused (˜3 ml/min) with aCSF. SGCs in whole mouse DRGs could be visualized using a 40× water-immersion objective on an Olympus BX51WI microscope (Olympus Corp., Shinjuku, Japan). The round or fusiform-shaped cell bodies of SGCs were small (<10 μm) but visible near the edges of DRG neurons. Patch pipettes (Chase Scientific Glass Inc., Ramsey, MN) were pulled and filled with a pipette solution containing: 126 mM potassium gluconate, 10 mM NaCl, 1 mM MgCl2, 10 mM EGTA, 2 mM Na-ATP, and 0.1 mM Mg-GTP, adjusted to pH 7.3 with KOH. The resistance of pipettes was 10-12 MΩ. A Whole-cell patch-clamp configuration was made on SGCs at room temperature using a Multiclamp 700B amplifier (Axon Instruments, Union City, CA). Under voltage clamp, at a holding potential of −80 mV, inward or outward currents are triggered by voltage steps of −160 to +40 mV, with 20 mV increment in 200 ms (H. Zhang et al., Altered functional properties of satellite glial cells in compressed spinal ganglia. Glia 57, 1588-1599 (2009)). To isolate inwardly rectifying potassium current (Kir), potassium currents from the same cells were recorded in the absence and presence of 100 μM extracellular barium, which blocks the Kir4.1 channel (C. A. Doupnik, et al, The inward rectifier potassium channel family. Curr Opin Neurobiol 5, 268-277 (1995); X. Tong et al., Astrocyte Kir4.1 ion channel deficits contribute to neuronal dysfunction in Huntington's disease model mice. Nat Neurosci 17, 694-703 (2014)). The Kir4.1 currents were obtained by digitally subtracting those currents in the absence and presence of barium.
Kir4.1 potassium channels are the predominant potassium channels in SGCs and are chiefly responsible for the potassium currents in SGCs. Dysregulation of SGC Kir4.1 contributes to the pathogenesis of pain (M. Hanani, D. C. Spray, Emerging importance of satellite glia in nervous system function and dysfunction. Nat Rev Neurosci 21, 485-498 (2020)). SGC K^+ currents were recorded by conducting patch-clamp recordings in SGCs in whole-mount DRG preparation (data not shown; see U.S. Prov. No. 63/270,198, FIG. 7A), collected from WT mice, Gpr37l1^+/+ mice, and Gpr37l1^+/− mutant mice (FIG. 11A parts A-C).

[4] = tested on: neuron-glia mixed cultures from DRG; assay: IL-1β release in SGC-neuron co-cultures from DRG (ELISA); format: cell-based, mouse; conditions: 1 μM for 24 h
Protocol: SGC and neuron co-culture: DRG were collected from wild-type (WT) or knock-out (KO) mice (8 weeks male) and incubated in 1 mg/ml Collagenase/Dispase (Roche Diagnostics, Madison, WI, USA) at 37° C. for 60 min, with agitation at 100 revolutions per minute (RPM) and then followed by incubation in 0.05% trypsin/EDTA for 10 min. The digestion enzymes were prepared in Dulbecco's modified Eagle medium/F12 with GlutaMAX (ThermoFisher, Waltham, MA). After incubation of 0.1% trypsin inhibitor and centrifugation (300 G), the cell pellet was gently triturated in a neurobasal medium containing […]. Dissociated DRG cells were seeded on non-coated culture dishes for 4 hrs. SGC and neurons were included for co-culture by hand-shaking of the culture flasks gently for 5 to 10 min and then resuspended by replacing with a new neurobasal medium. The attached glial-like cells were cultured in the DMEM/F12 medium containing 10% fetal bovine serum and 1% streptomycin/penicillin to promote cell growth and inhibition of differentiation. After 2 to 6 days, the glial-like cells were differentiated by application of the serum-free neural basal medium. […]

Question: `CC/C=C\C/C=C\C/C=C\C/C=C\C/C=C\C/C=C\CCC(=O)O` [DHA, reference compound] was tested. Which “GPR37L1 binding in lipid-coated bead pull-down extracts” value (shortened to “GPR37L1 binding”) [1] did it give?
Answer: Its value is “not binding”.

Question: `CC/C=C\C[C@H](O)/C=C/C=C\C=C\C=C\[C@@H](O)[C@@H](O)C/C=C\CCC(=O)O` [RvD1] was tested. Which “GPR37L1 binding” value [1] did it give?
Answer: Its value is “not binding”.

Question: With `CC/C=C\C[C@H](O)\C=C/C=C/C=C/[C@H](O)C/C=C\C/C=C\CCC(=O)O` [NPD1, Neuroprotectin D1] as the molecule, how does the “GPR37L1 binding” value [1] read?
Answer: The value was “some weak binding”.

Question: What about the β-arrestin signaling [2] of the same molecule?
Answer: The β-arrestin signaling was 1.8 fold increase.

Question: And the EC50 [2]?
Answer: Its EC50 is 1.74 nM.

Question: Which results are given for `CC[C@H](C)[C@H](NC(=O)[C@H](CCC(=O)O)NC(=O)[C@H](CCC(=O)O)NC(=O)[C@@H](NC(=O)[C@H](C)NC(=O)[C@H](CC(N)=O)NC(=O)[C@H](CC(N)=O)NC(=O)[C@H](CC(=O)O)NC(=O)[C@@H](NC(=O)[C@H](CC(C)C)NC(=O)[C@@H](C)NC(=O)[C@@H](N)[C@@H](C)O)[C@@H](C)CC)[C@@H](C)O)C(=O)N[C@@H](CC(C)C)C(=O)N[C@@H](Cc1ccc(O)cc1)C(=O)O` [TX14, reference compound] (H-T[dA]LIDNNATEEILY-OH; N-terminus and C-terminus assumed)?
Answer: β-arrestin signaling [2]: 3.71 fold increase; EC50 [2]: 9.8 nM

Question: How did the “GPR37L1 binding” value [1] turn out when `CC/C=C\C[C@H](O)[C@H](O)/C=C/C=C/C=C\C=C\[C@@H](O)C/C=C\CCC(=O)O` [RvD2] was run?
Answer: The value was “not binding”.

Question: Which “effect on K+ currents in SGCs” value ([3]; 1 μM, 60 min, WT-DRG) does the source give for `CC(=O)O[C@H]1C(=O)[C@@]2(C)[C@H]([C@H](OC(=O)c3ccccc3)[C@]3(O)C[C@H](OC(=O)[C@H](O)[C@@H](NC(=O)c4ccccc4)c4ccccc4)C(C)=C1C3(C)C)[C@]1(OC(C)=O)CO[C@@H]1C[C@@H]2O` [PTX, paclitaxel, reference compound] here?
Answer: Its value is “substantial reduction”.

Question: And the “IL-1β secretion in culture medium” value [4]?
Answer: The value was “marked increase”.

Question: Barium [reference compound] was tested. Which “effect on total K+ currents in SGCs” value ([3]; 100 μM) did it give?
Answer: The value was “largely blocked”.
